Results as given in PubChem BioAssay AID743501 (Broad Institute, 2014).
Activity calls are given as the source filed them.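 Rule for the calls: active = half-inhibitory concentration IC50 below 35 µM against dopamine receptor luciferase signal; inactive = the rest.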

Tested on: HEK293 dopamine receptor CRE-luciferase, antagonist mode
Test: dopamine receptor CRE reporter signal reduction – cell-based, HEK293, luminescence, dry powder, counter-screen for LGR2 project, dose response (AID 743501)

| SMILES | IC50 |
| --- | --- |
| C[C@@H]1CCCCO[C@H](CN(C)C(=O)Nc2ccc(F)cc2)[C@H](C)CN([C@@H](C)CO)C(=O)c2cc(NC(=O)C3CCCCC3)ccc2O1 | > 35 µM (inactive) |
| C[C@H](CO)N1C[C@H](C)[C@H](CN(C)C(=O)Nc2ccc(F)cc2)OCCCC[C@H](C)Oc2ccc(NC(=O)C3CCCCC3)cc2C1=O | < 35 µM |
| C[C@H](CO)N1C[C@H](C)[C@H](CN(C)C(=O)Nc2ccccc2)OCCCC[C@H](C)Oc2ccc(NC(=O)C3CCCCC3)cc2C1=O | < 35 µM |
| C[C@H](CO)N1C[C@H](C)[C@H](CN(C)C(=O)Nc2ccc3c(c2)OCO3)OCCCC[C@H](C)Oc2ccc(NC(=O)C3CCCCC3)cc2C1=O | < 35 µM |
| COc1ccc(NC(=O)N(C)C[C@@H]2OCCCC[C@H](C)Oc3ccc(NC(=O)C4CCCCC4)cc3C(=O)N([C@H](C)CO)C[C@@H]2C)cc1 | > 35 µM (inactive) |
